Assay results: the supplement of paper PMC10307832

Experiments:
Experiment in all cases: relative viability (nuclei count vs DMSO), 5 days (fraction); higher = more cells survive
[1] = compound: CC1(COc2ccc3c(c2)ncn3-c2ccc3cccc(N4CCC(N)CC4)c3n2)COC1 [Crenolanib] + COc1cccc2cc(-c3nc([C@H]4CC[C@H](C(=O)O)CC4)n4ncnc(N)c34)[nH]c12 [OSI-027] (partner 0.5 µM)
Method in brief: (§1)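 After 5 days of treatment, lung cancer cells in 1536-well plates were fixed and stained in a single step (final 0.05% Triton X-100, 1% formaldehyde, 1 ug/ml Hoechst) and their nuclei counted on 4× images. Treatment had been applied by pin tool the day after seeding as one drug alone or as a fixed anchor-drug dose with five library-drug doses (not always all listed) in √10 steps. Relative viability is the nuclei count of treated wells divided by that of vehicle wells, and values are medians of duplicate plates.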

[2] = compound: CC1(COc2ccc3c(c2)ncn3-c2ccc3cccc(N4CCC(N)CC4)c3n2)COC1 [Crenolanib] + CS(=O)(=O)N1CCN(Cc2cc3nc(-c4cccc5[nH]ncc45)nc(N4CCOCC4)c3s2)CC1 [Pictilisib] (partner 1 µM)
Method in brief: as §1

[3] = compound: CC1(COc2ccc3c(c2)ncn3-c2ccc3cccc(N4CCC(N)CC4)c3n2)COC1 [Crenolanib] + C[C@]1(O)C[C@@H](c2nc(-c3ccc4ccc(-c5ccccc5)nc4c3)c3c(N)nccn32)C1 [Linsitinib] (partner 1 µM)
Method in brief: as §1

[4] = compound: CC1(COc2ccc3c(c2)ncn3-c2ccc3cccc(N4CCC(N)CC4)c3n2)COC1 [Crenolanib] + Cc1cc(Nc2cc(N3CCN(C)CC3)nc(Sc3ccc(NC(=O)C4CC4)cc3)n2)n[nH]1 [Tozasertib] (partner 0.1 µM)
Method in brief: as §1

| Cell Line | relative viability ([1]; first compound 0.01 µM) | relative viability ([1]; first compound 0.03162 µM) | relative viability ([1]; first compound 0.1 µM) | relative viability ([1]; first compound 0.3162 µM) | relative viability ([1]; first compound 1 µM) | relative viability ([2]; first compound 0.01 µM) | relative viability ([2]; first compound 0.03162 µM) | relative viability ([2]; first compound 0.1 µM) | relative viability ([2]; first compound 0.3162 µM) | relative viability ([2]; first compound 1 µM) | relative viability ([3]; first compound 0.01 µM) | relative viability ([3]; first compound 0.03162 µM) | relative viability ([3]; first compound 0.1 µM) | relative viability ([3]; first compound 0.3162 µM) | relative viability ([3]; first compound 1 µM) | relative viability ([4]; first compound 0.01 µM) | relative viability ([4]; first compound 0.03162 µM) | relative viability ([4]; first compound 0.1 µM) | relative viability ([4]; first compound 0.3162 µM) | relative viability ([4]; first compound 1 µM) |
| --- | --- | --- | --- | --- | --- | --- | --- | --- | --- | --- | --- | --- | --- | --- | --- | --- | --- | --- | --- | --- |
| LU99A | 0.305 | 0.318 | 0.257 | 0.331 | 0.264 | 0.37 | 0.324 | 0.325 | 0.393 | 0.287 | 0.547 | 0.559 | 0.531 | 0.628 | 0.603 | 0.288 | 0.261 | 0.277 | 0.249 | 0.263 |
| LXF-289 | 0.844 | 0.764 | 0.752 | 0.786 | 0.706 | 0.761 | 0.666 | 0.733 | 0.916 | 0.755 | 0.974 | 1.02 | 0.955 | 1.02 | 0.972 | 0.183 | 0.222 | 0.201 | 0.181 | 0.176 |
| NCI-H23 | 0.689 | 0.649 | 0.594 | 0.783 | 0.351 | 0.482 | 0.484 | 0.399 | 0.487 | 0.351 | 0.563 | 0.671 | 0.548 | 0.759 | 0.648 | 0.358 | 0.394 | 0.385 | 0.313 | 0.27 |
| NCI-H322M | 0.648 | 0.574 | 0.575 | 0.634 | 0.534 | 0.519 | 0.499 | 0.527 | 0.517 | 0.493 | 0.944 | 0.923 | 0.884 | 0.935 | 0.975 | 0.51 | 0.503 | 0.461 | 0.424 | 0.465 |
| NCI-H358 | 0.849 | 0.777 | 0.675 | 0.744 | 0.565 | 0.4 | 0.309 | 0.332 | 0.326 | 0.311 | 0.819 | 0.682 | 0.566 | 0.727 | 0.58 | 0.0999 | 0.097 | 0.0998 | 0.0966 | 0.12 |
| NCI-H441 | 0.929 | 0.6 | 0.507 | 0.539 | 0.463 | 0.497 | 0.502 | 0.483 | 0.527 | 0.56 | 0.555 | 0.508 | 0.46 | 0.484 | 0.509 | 0.68 | 0.82 | 0.643 | 0.717 | 0.663 |
| NCI-H460 | 0.825 | 0.685 | 0.682 | 0.752 | 0.598 | 0.379 | 0.306 | 0.316 | 0.363 | 0.308 | 0.85 | 0.817 | 0.745 | 1.02 | 0.816 | 0.621 | 0.44 | 0.421 | 0.056 | 0.397 |
| NCI-H520 | 0.245 | 0.284 | 0.311 | 0.306 | 0.318 | 0.267 | 0.324 | 0.326 | 0.295 | 0.301 | 0.89 | 1.07 | 0.853 | 1.08 | 0.868 | 0.48 | 0.475 | 0.514 | 0.477 | 0.437 |
| NCI-H596 | 0.866 | 0.84 | 0.696 | 0.703 | 0.731 | 0.351 | 0.398 | 0.342 | 0.353 | 0.397 | 1.01 | 0.994 | 0.97 | 0.961 | 1.18 | 0.944 | 1.09 | 1.02 | 1.19 | 0.972 |
| NCI-H647 | 0.588 | 0.623 | 0.79 | 0.709 | 0.705 | 0.448 | 0.314 | 0.412 | 0.423 | 0.454 | 1.14 | 1.11 | 1.09 | 1.31 | 1.34 | 0.294 | 0.384 | 0.285 | 0.354 | 0.297 |
| NCI-H650 | 0.564 | 0.534 | 0.52 | 0.492 | 0.348 | 0.9 | 0.806 | 0.901 | 0.801 | 0.83 | 1.06 | 0.969 | 0.952 | 0.923 | 0.715 | 0.826 | 0.79 | 0.707 | 0.327 | 0.614 |
| NCI-H661 | 0.757 | 0.721 | 0.744 | 0.854 | 0.776 | 0.476 | 0.336 | 0.368 | 0.378 | 0.414 | 0.628 | 0.527 | 0.499 | 0.544 | 0.497 | 0.342 | 0.36 | 0.35 | 0.359 | 0.412 |
| NCI-H727 | 0.782 | 0.649 | 0.731 | 0.614 | 0.431 | 0.491 | 0.634 | 0.342 | 0.473 | 0.418 | 0.285 | 0.245 | 0.284 | 0.327 | 0.389 | 0.635 | 0.579 | 0.721 | 0.65 | 0.501 |
| NCI-H838 | 0.378 | 0.358 | 0.418 | 0.366 | 0.283 | 0.492 | 0.499 | 0.418 | 0.418 | 0.381 | 1.05 | 0.967 | 0.929 | 1.09 | 0.943 | 0.321 | 0.287 | 0.25 | 0.266 | 0.251 |
| NCI-H1355 | 0.491 | 0.382 | 0.409 | 0.417 | 0.35 | 0.459 | 0.48 | 0.436 | 0.402 | 0.389 | 0.857 | 0.848 | 0.773 | 0.947 | 0.809 | 0.586 | 0.596 | 0.508 | 0.354 | 0.534 |
| NCI-H1395 | 0.749 | 0.626 | 0.666 | 0.605 | 0.6 | 0.655 | 0.562 | 0.708 | 0.789 | 0.553 | 1.6 | 1.11 | 1 | 0.898 | 1.21 | 0.742 | 0.759 | 0.81 | 0.691 | 0.659 |
| NCI-H1437 | 0.902 | 0.862 | 0.936 | 0.869 | 0.855 | 0.548 | 0.517 | 0.549 | 0.495 | 0.571 | 1.05 | 1.03 | 0.958 | 1.12 | 1.02 | 0.458 | 0.443 | 0.415 | 0.437 | 0.39 |
| NCI-H1651 | 0.77 | 0.668 | 0.715 | 0.674 | 0.702 | 0.568 | 0.511 | 0.52 | 0.548 | 0.502 | 1.06 | 0.988 | 0.892 | 1.02 | 0.878 | 0.649 | 0.716 | 0.592 | 0.852 | 0.61 |
| NCI-H1666 | 0.85 | 0.933 | 0.834 | 0.906 | 0.85 | 0.605 | 0.352 | 0.401 | 0.406 | 0.411 | 0.871 | 0.909 | 0.765 | 0.881 | 0.839 | 0.695 | 0.613 | 0.633 | 0.591 | 0.555 |
| NCI-H1734 | 0.706 | 0.563 | 0.561 | 0.822 | 0.566 | 0.436 | 0.494 | 0.443 | 0.477 | 0.432 | 0.925 | 0.934 | 0.858 | 1.02 | 0.895 | 0.275 | 0.251 | 0.249 | 0.306 | 0.275 |
| NCI-H1755 | 0.701 | 0.797 | 0.696 | 0.708 | 0.653 | 0.423 | 0.408 | 0.397 | 0.399 | 0.393 | 1.01 | 0.981 | 0.994 | 1.09 | 0.959 | 0.666 | 0.594 | 0.527 | 0.501 | 0.549 |
| NCI-H1793 | 0.297 | 0.335 | 0.237 | 0.311 | 0.268 | 0.302 | 0.315 | 0.322 | 0.312 | 0.385 | 0.811 | 1.03 | 0.838 | 1.14 | 0.873 | 0.368 | 0.362 | 0.396 | 0.226 | 0.422 |
| NCI-H1915 | 0.583 | 0.646 | 0.592 | 0.634 | 0.417 | 0.871 | 0.957 | 0.932 | 0.915 | 0.586 | 1.13 | 1.13 | 1.07 | 1.09 | 1.06 | 0.453 | 0.415 | 0.436 | 0.424 | 0.391 |
| NCI-H1944 | 0.554 | 0.408 | 0.416 | 0.397 | 0.346 | 0.367 | 0.351 | 0.37 | 0.346 | 0.304 | 1.18 | 1.15 | 1.21 | 1.32 | 1.17 | 0.251 | 0.248 | 0.261 | 0.242 | 0.234 |
| NCI-H1975 | 0.717 | 0.792 | 0.668 | 0.682 | 0.778 | 0.271 | 0.307 | 0.247 | 0.283 | 0.214 | 1.05 | 0.968 | 0.933 | 0.993 | 0.864 | 0.754 | 0.759 | 0.698 | 0.881 | 0.632 |
| NCI-H1993 | 0.527 | 0.526 | 0.509 | 0.567 | 0.592 | 0.778 | 0.805 | 0.71 | 0.858 | 0.825 | 0.771 | 0.757 | 0.724 | 0.649 | 0.705 | 0.639 | 0.588 | 0.572 | 0.579 | 0.543 |
